The target in test [1] is Adenosylhomocysteinase (Homo sapiens, UniProt P23526). Briefly: Tested for inhibitory concentration against S-adenosyl-homocysteine hydrolase.
Test [2] concerns MT4. The test is described as follows: Tested for toxicity against growth/viability of MT-4 cells. The test is classed as functional. The settings on record: Homo sapiens.
Test [3] has as its system E6SM. Briefly: Tested for antiviral activity against HSV-2 (G) in E6SM cells. It is filed as functional. The settings on record: Homo sapiens.
Test [4] concerns MT4. The test is described as follows: Tested for antiviral activity against HIV-1 (IIIB/LAI) in MT-4 cells. The test is classed as functional. The conditions noted are these: Homo sapiens.
The subject of test [5] is E6SM. The test is described as follows: Tested for toxicity against morphology of E6SM cells. It is filed as functional. The conditions noted are these: Homo sapiens.
The subject of test [6] is HeLa. The test is described as follows: Tested for antiviral activity against respiratory syncytial (long) in HeLa cells. The settings on record: Homo sapiens. The test is classed as functional.
Test [7] relates to HeLa. The test is described as follows: Tested for toxicity against morphology of HeLa cells. The settings on record: Homo sapiens. It is filed as functional.
Test [8] concerns E6SM. The test is described as follows: Tested for antiviral activity against TK-HSV-1 (B2006) in E6SM cells. The conditions noted are these: Homo sapiens. It is filed as functional.
Test [9] relates to Vero. Briefly: Tested for antiviral activity against Junin in vero cells. It is filed as functional. The settings on record: Chlorocebus sabaeus.
The test system of test [10] is HeLa. The test is described as follows: Tested for antiviral activity against coxsackie B4 in HeLa cells. The test is classed as functional. The settings on record: Homo sapiens.
Test [11] has as its system Vero. The test is described as follows: Tested for antiviral activity against reo-1 in vero cells. The settings on record: Chlorocebus sabaeus. It is filed as functional.
The subject of test [12] is MT4. The test is described as follows: Tested for antiviral activity against HIV-2 (ROD) in MT-4 cells. The test is classed as functional. The conditions noted are these: Homo sapiens.
The subject of test [13] is Vero. Briefly: Tested for antiviral activity against coxsackie B4 in vero cells. The test is classed as functional. The settings on record: Chlorocebus sabaeus.
Test [14] has as its system E6SM. Briefly: Tested for antiviral activity against HSV-1 (KOS) in E6SM cells. The test is classed as functional. The conditions noted are these: Homo sapiens.
Test [15] has as its system Vero. The test is described as follows: Tested for toxicity against morphology of vero cells. The test is classed as functional. The settings on record: Chlorocebus sabaeus.
Test [16] deals with Vero. The test is described as follows: Tested for antiviral activity against parainfluenza 3 (VR-93) in vero cells. The test is classed as functional. The settings on record: Chlorocebus sabaeus.
For test [17], the system named is HEL. The test is described as follows: Tested for effect on HEL cells growth viability for anti-HCMV activity. It is filed as functional. The settings on record: Homo sapiens.
Test [18] relates to Vero. Briefly: Tested for antiviral activity against Tacaribe in vero cells. It is filed as functional. The conditions noted are these: Chlorocebus sabaeus.
The subject of test [19] is Vero. The test is described as follows: Tested for antiviral activity against forest in vero cells. The settings on record: Chlorocebus sabaeus. It is filed as functional.
Test [20] has as its system Vero. The test is described as follows: Tested for antiviral activity against Sindbis in vero cells. The conditions noted are these: Chlorocebus sabaeus. It is filed as functional.
For test [21], the system named is HEL. Briefly: Tested for anti-HCMV activity using AD-169 and Davis strains in HEL cells. The settings on record: Homo sapiens. It is filed as functional.
Test [22] deals with MDCK. The test is described as follows: Tested for toxicity against morphology of MDCK cells. The conditions noted are these: Canis lupus familiaris. The test is classed as functional.

Converted amounts (≈) assume the structure as drawn.

Sequence of Adenosylhomocysteinase (P23526 whole entry): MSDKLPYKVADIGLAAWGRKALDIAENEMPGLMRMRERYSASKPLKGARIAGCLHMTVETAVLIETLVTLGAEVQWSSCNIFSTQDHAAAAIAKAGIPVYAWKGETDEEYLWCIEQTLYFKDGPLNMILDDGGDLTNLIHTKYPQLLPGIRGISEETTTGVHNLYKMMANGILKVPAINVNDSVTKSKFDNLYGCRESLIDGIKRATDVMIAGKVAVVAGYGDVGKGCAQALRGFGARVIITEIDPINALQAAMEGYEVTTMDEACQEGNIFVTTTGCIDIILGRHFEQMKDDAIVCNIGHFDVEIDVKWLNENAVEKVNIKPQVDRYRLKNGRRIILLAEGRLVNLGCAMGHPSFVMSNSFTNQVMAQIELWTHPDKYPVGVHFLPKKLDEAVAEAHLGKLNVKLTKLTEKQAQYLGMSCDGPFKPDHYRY

The molecule `Nc1ccnc2c1ncn2[C@@H]1C[C@H](CO)[C@@H](O)[C@H]1O` came in with an IC50 in [1] of 18 nM.
Take `Nc1ncnc2c1ccn2C1CCC(O)C1O` (stereo not given): the MIC50 in test [2] was more than 130 µg/mL; in test [3] it was more than 200 µg/mL; in test [4] it was more than 130 µg/mL; in test [5], more than 200 µg/mL; in [6], more than 100 µg/mL; in [7], more than 200 µg/mL. Also, the MIC50 in [8] was more than 200 µg/mL; in test [9], 84 µg/mL (≈ 359 µM); in test [10], more than 200 µg/mL; in test [11] it was more than 200 µg/mL; in [12] it was more than 130 µg/mL; in test [13], more than 200 µg/mL. Besides, the MIC50 was more than 200 µg/mL in [14]; more than 200 µg/mL in [15]; 150 µg/mL (≈ 640 µM) in [16]; 130 µg/mL (≈ 555 µM) in test [17]; 64 µg/mL (≈ 273 µM) in [18]; more than 200 µg/mL in [19]. For the same molecule, the MIC50 in test [20] was more than 200 µg/mL; in [21], 18 µg/mL (≈ 76.8 µM); in [22], more than 100 µg/mL. The 50% inhibitory concentration (IC50) in [1] was more than 100000 nM.
In turn, `Nc1ncnc2c1ncn2[C@@H]1C=C(CO)[C@@H](O)[C@H]1O` [NEOPLANOCIN A] gave an IC50 in [1] of 7.2 nM. This counts as single-digit nanomolar.
Turning to `Nc1ncnc2c1ncn2C[C@H](O)CO` [(S)-DHPA], the IC50 in [1] turned out to be 280 nM. Against the preceding molecule, the IC50 is about 39-fold higher.

A word on the IC50: it is the midpoint of a concentration-inhibition curve. A higher IC50 goes with weaker potency.
